# Source: patent publication US20010044437A1, “Methods for reducing uric acid levels” (priority 2000, published 2001)
# Tested on: serum uric acid
# Assay: Serum uric acid during 28-day once-daily oral dosing, placebo-controlled study in 48 subjects (Example 34)
# Type: in vivo, human
# Protocol: In another study, 48 subjects were divided into four groups, A, B, C and D, and administered the noted amount of the compound of Example 3. Each group was composed of 12 subjects of whom 9 received the compound and 3 received placebo. The non-placebo members of group A received 50 mg of compound, administered orally once a day for 28 days as a single 50 mg tablet. The non-placebo members of group B received 200 mg of compound administered orally once a day for 28 days as a single 200 mg tablet. The non-placebo members of group C received 500 mg of compound administered orally once a day for 28 days as two 50 mg tablets and two 200 mg tablets. The non-placebo members of group D received 800 mg of compound administered orally once a day for 28 days as four 200 mg tablets. The 3 placebo members of each group, received an amount of placebo, as a tablet, equivalent to the amount of test compound—50 mg placebo for group A, 200 mg placebo for group B, 500 mg placebo for group C and 800 mg placebo for group D. Each subject received a single dose of either compound or placebo for 28 days. The subjects were confined at the clinical site beginning the day before dose administration until 72 hours after the final dose administration on Day 28 and returned for an outpatient visit on Day 35.
# Uric acid levels were measured prior to beginning the study (screening), on the day immediately prior to commencement of the study (day-1), and then as noted in the table. Hours indicates the time since the last dose was administered. For example, Day 7, 0 hour indicates the time the serum uric acid level at the time the dose was administered and Day 7, 2 hour indicates the uric acid level two hours after the adminstration that day. Further, the Day 30, 60 hour level is the serum uric acid level measured 60 hours (on Day 30) after the last dose was administered on Day 28. The uric acid levels are presented in mg/dL as a mean of all subjects in each group.
compound,measurement,setting,value
"O=C(O)Cn1cc(Cc2nc3c(F)c(F)cc(F)c3s2)c2ccccc21 [Example 3, 3-(4,5,7-Trifluorobenzothiazol-2-yl)methyl-indole-N-acetic Acid]",Uric Acid Level (mean of all subjects in each group),"group A 50 mg orally once a day, Day 1 8 Hour",3.94 mg/dL
same,Uric Acid Level (mean of all subjects in each group),"group A 50 mg orally once a day, Day 1 10 Hour",3.87 mg/dL
same,Uric Acid Level (mean of all subjects in each group),"group A 50 mg orally once a day, Day 1 12 Hour",3.89 mg/dL
same,Uric Acid Level (mean of all subjects in each group),"group A 50 mg orally once a day, Day 1 16 Hour",3.98 mg/dL
same,Uric Acid Level (mean of all subjects in each group),"group A 50 mg orally once a day, Day 1 24 Hour",4.19 mg/dL
same,Uric Acid Level (mean of all subjects in each group),"group A 50 mg orally once a day, Day 3",3.62 mg/dL
same,Uric Acid Level (mean of all subjects in each group),"group A 50 mg orally once a day, Day 7 0 Hour",3.36 mg/dL
same,Uric Acid Level (mean of all subjects in each group),"group A 50 mg orally once a day, Day 7 0.5 Hour",3.33 mg/dL
same,Uric Acid Level (mean of all subjects in each group),"group A 50 mg orally once a day, Day 7 1 Hour",3.28 mg/dL
same,Uric Acid Level (mean of all subjects in each group),"group A 50 mg orally once a day, Day 7 2 Hour",3.14 mg/dL
same,Uric Acid Level (mean of all subjects in each group),"group A 50 mg orally once a day, Day 7 3 Hour",3.03 mg/dL
same,Uric Acid Level (mean of all subjects in each group),"group A 50 mg orally once a day, Day 7 4 Hour",2.99 mg/dL
same,Uric Acid Level (mean of all subjects in each group),"group A 50 mg orally once a day, Day 7 6 Hour",3.30 mg/dL
same,Uric Acid Level (mean of all subjects in each group),"group A 50 mg orally once a day, Day 7 8 Hour",3.34 mg/dL
same,Uric Acid Level (mean of all subjects in each group),"group A 50 mg orally once a day, Day 7 10 Hour",3.36 mg/dL
same,Uric Acid Level (mean of all subjects in each group),"group A 50 mg orally once a day, Day 7 12 Hour",3.26 mg/dL
same,Uric Acid Level (mean of all subjects in each group),"group A 50 mg orally once a day, Day 7 16 Hour",3.07 mg/dL
same,Uric Acid Level (mean of all subjects in each group),"group A 50 mg orally once a day, Day 7 24 Hour",3.48 mg/dL
same,Uric Acid Level (mean of all subjects in each group),"group A 50 mg orally once a day, Day 14 0 Hour",3.51 mg/dL
same,Uric Acid Level (mean of all subjects in each group),"group A 50 mg orally once a day, Day 14 0.5 Hour",3.43 mg/dL
same,Uric Acid Level (mean of all subjects in each group),"group A 50 mg orally once a day, Day 14 1 Hour",3.41 mg/dL
same,Uric Acid Level (mean of all subjects in each group),"group A 50 mg orally once a day, Day 14 2 Hour",3.37 mg/dL
same,Uric Acid Level (mean of all subjects in each group),"group A 50 mg orally once a day, Day 14 3 Hour",3.19 mg/dL
same,Uric Acid Level (mean of all subjects in each group),"group A 50 mg orally once a day, Day 14 4 Hour",3.17 mg/dL
same,Uric Acid Level (mean of all subjects in each group),"group A 50 mg orally once a day, Day 14 6 Hour",3.38 mg/dL
same,Uric Acid Level (mean of all subjects in each group),"group A 50 mg orally once a day, Day 14 8 Hour",3.34 mg/dL
same,Uric Acid Level (mean of all subjects in each group),"group A 50 mg orally once a day, Day 14 10 Hour",3.24 mg/dL
same,Uric Acid Level (mean of all subjects in each group),"group B 200 mg orally once a day, Day 1 8 Hour",3.37 mg/dL
same,Uric Acid Level (mean of all subjects in each group),"group B 200 mg orally once a day, Day 1 10 Hour",3.16 mg/dL
same,Uric Acid Level (mean of all subjects in each group),"group B 200 mg orally once a day, Day 1 12 Hour",3.12 mg/dL
same,Uric Acid Level (mean of all subjects in each group),"group B 200 mg orally once a day, Day 1 16 Hour",3.01 mg/dL
same,Uric Acid Level (mean of all subjects in each group),"group B 200 mg orally once a day, Day 1 24 Hour",3.64 mg/dL
same,Uric Acid Level (mean of all subjects in each group),"group B 200 mg orally once a day, Day 3",2.94 mg/dL
same,Uric Acid Level (mean of all subjects in each group),"group B 200 mg orally once a day, Day 7 0 Hour",2.86 mg/dL
same,Uric Acid Level (mean of all subjects in each group),"group B 200 mg orally once a day, Day 7 0.5 Hour",2.79 mg/dL
same,Uric Acid Level (mean of all subjects in each group),"group B 200 mg orally once a day, Day 7 1 Hour",2.74 mg/dL
same,Uric Acid Level (mean of all subjects in each group),"group B 200 mg orally once a day, Day 7 2 Hour",2.61 mg/dL
same,Uric Acid Level (mean of all subjects in each group),"group B 200 mg orally once a day, Day 7 3 Hour",2.50 mg/dL
same,Uric Acid Level (mean of all subjects in each group),"group B 200 mg orally once a day, Day 7 4 Hour",2.47 mg/dL
same,Uric Acid Level (mean of all subjects in each group),"group B 200 mg orally once a day, Day 7 6 Hour",2.72 mg/dL
same,Uric Acid Level (mean of all subjects in each group),"group B 200 mg orally once a day, Day 7 8 Hour",2.54 mg/dL
same,Uric Acid Level (mean of all subjects in each group),"group B 200 mg orally once a day, Day 7 10 Hour",2.53 mg/dL
same,Uric Acid Level (mean of all subjects in each group),"group B 200 mg orally once a day, Day 7 12 Hour",2.44 mg/dL
same,Uric Acid Level (mean of all subjects in each group),"group B 200 mg orally once a day, Day 7 16 Hour",2.43 mg/dL
same,Uric Acid Level (mean of all subjects in each group),"group B 200 mg orally once a day, Day 7 24 Hour",2.70 mg/dL
same,Uric Acid Level (mean of all subjects in each group),"group B 200 mg orally once a day, Day 14 0 Hour",2.87 mg/dL
same,Uric Acid Level (mean of all subjects in each group),"group C 500 mg orally once a day, Day 1 0 Hour",5.16 mg/dL
same,Uric Acid Level (mean of all subjects in each group),"group C 500 mg orally once a day, Day 1 0.5 Hour",5.08 mg/dL
same,Uric Acid Level (mean of all subjects in each group),"group C 500 mg orally once a day, Day 1 1 Hour",4.81 mg/dL
same,Uric Acid Level (mean of all subjects in each group),"group C 500 mg orally once a day, Day 1 2 Hour",4.27 mg/dL
same,Uric Acid Level (mean of all subjects in each group),"group C 500 mg orally once a day, Day 1 3 Hour",3.84 mg/dL
same,Uric Acid Level (mean of all subjects in each group),"group C 500 mg orally once a day, Day 1 4 Hour",3.54 mg/dL
same,Uric Acid Level (mean of all subjects in each group),"group C 500 mg orally once a day, Day 1 6 Hour",3.30 mg/dL
same,Uric Acid Level (mean of all subjects in each group),"group C 500 mg orally once a day, Day 1 8 Hour",2.82 mg/dL
same,Uric Acid Level (mean of all subjects in each group),"group C 500 mg orally once a day, Day 1 10 Hour",2.59 mg/dL
same,Uric Acid Level (mean of all subjects in each group),"group C 500 mg orally once a day, Day 1 12 Hour",2.56 mg/dL
